From PMC11198769, “Enhancement of transcription efficiency by TAR-Tat system increases the functional expression of human olfactory receptors” (PLOS ONE, 2024)

How the values were obtained:
Test in all cases: Comprehensive analysis (screening) of hORs against n-hexanal
Assay type in all cases: cell-based
OR52N4 = target: T1, OR52N4 (Homo sapiens, UniProt Q8NGI2); settings: OR52N4, 500 μM n-hexanal, with the TAR-Tat system (hOR/pHEK), n = 1
T1 construct: Lucy tag (N); expressed in transfected cells; host or cells: Flp-In T-REx-293 cells stably expressing RTP1S, Gαolf and Ric8-b
T1 sequence (Q8NGI2 1-321): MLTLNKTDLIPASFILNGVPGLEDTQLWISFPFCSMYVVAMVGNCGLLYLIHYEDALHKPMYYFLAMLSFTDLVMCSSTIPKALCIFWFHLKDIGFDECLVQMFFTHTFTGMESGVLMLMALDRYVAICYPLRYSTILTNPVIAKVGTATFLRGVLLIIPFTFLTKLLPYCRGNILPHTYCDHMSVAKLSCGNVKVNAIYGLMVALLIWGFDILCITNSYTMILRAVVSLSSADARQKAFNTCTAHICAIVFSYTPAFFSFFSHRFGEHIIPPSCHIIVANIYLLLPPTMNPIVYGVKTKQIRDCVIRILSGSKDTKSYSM
Experimental: (§1) Transfection was performed as described in the “hOR assay,” but 12.5 ng of 379 hOR plasmids (hOR/pBApo and hOR/pHEK) was transfected with the 12.5 ng pGlosensor^TM-22F cAMP biosensor plasmid (Promega) in 384 plates per well. After loading the GloSensor cAMP substrate and preincubation, the assay buffer was added (30 μL/well). After 10 min of equilibration, luminescence was measured (L0). Then, 50 mM n-hexanal, which was diluted with 10% DMSO/assay buffer, was added (4.7 μL/well). After 9 min, luminescence was measured (L9min). All the L9min values were subtracted by the L0 value (ΔL).

OR2M3 = target: T2, OR2M3 (Homo sapiens, UniProt Q8NG83); settings: OR2M3, 500 μM n-hexanal, with the TAR-Tat system (hOR/pHEK), n = 1
T2 construct: Lucy tag (N); expressed in transfected cells; host or cells: Flp-In T-REx-293 cells stably expressing RTP1S, Gαolf and Ric8-b
T2 sequence (Q8NG83 1-312): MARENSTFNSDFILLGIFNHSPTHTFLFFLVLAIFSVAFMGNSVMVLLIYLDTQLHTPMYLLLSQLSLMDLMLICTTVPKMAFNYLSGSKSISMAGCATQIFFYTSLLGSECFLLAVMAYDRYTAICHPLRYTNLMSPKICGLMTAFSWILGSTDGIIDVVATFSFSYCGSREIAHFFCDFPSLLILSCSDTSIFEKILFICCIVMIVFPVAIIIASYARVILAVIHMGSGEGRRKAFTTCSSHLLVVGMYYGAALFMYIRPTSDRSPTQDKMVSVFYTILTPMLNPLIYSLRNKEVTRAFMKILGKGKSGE
Experimental: as §1

OR4K5 = target: T3, OR4K5 (Homo sapiens, UniProt Q8NGD3); settings: OR4K5, 500 μM n-hexanal, with the TAR-Tat system (hOR/pHEK), n = 1
T3 construct: Lucy tag (N); FLAG (N); Rho tag (N); expressed in transfected cells; host or cells: Flp-In T-REx-293 cells stably expressing RTP1S, Gαolf and Ric8-b
T3 sequence (Q8NGD3 1-323): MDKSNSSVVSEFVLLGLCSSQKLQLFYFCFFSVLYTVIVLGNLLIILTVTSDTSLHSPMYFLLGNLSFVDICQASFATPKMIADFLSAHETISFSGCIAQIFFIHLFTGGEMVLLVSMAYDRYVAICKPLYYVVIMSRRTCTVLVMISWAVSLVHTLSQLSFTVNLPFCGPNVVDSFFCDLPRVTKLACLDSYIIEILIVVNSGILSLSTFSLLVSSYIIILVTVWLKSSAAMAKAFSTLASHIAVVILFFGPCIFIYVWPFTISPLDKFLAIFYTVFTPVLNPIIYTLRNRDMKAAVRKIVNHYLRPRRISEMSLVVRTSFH
Experimental: as §1

OR10A2 = target: T4, OR10A2 (Homo sapiens, UniProt Q9H208); settings: OR10A2, 500 μM n-hexanal, with the TAR-Tat system (hOR/pHEK), n = 1
T4 construct: Lucy tag (N); expressed in transfected cells; host or cells: Flp-In T-REx-293 cells stably expressing RTP1S, Gαolf and Ric8-b
T4 sequence (Q9H208 1-303): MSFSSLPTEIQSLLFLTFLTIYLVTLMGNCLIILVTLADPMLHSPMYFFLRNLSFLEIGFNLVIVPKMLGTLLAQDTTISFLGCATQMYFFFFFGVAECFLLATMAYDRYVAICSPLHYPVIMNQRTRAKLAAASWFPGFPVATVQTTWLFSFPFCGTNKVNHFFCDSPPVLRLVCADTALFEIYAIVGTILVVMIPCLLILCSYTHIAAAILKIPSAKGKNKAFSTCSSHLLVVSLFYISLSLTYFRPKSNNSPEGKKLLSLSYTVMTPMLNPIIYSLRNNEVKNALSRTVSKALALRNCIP
Experimental: as §1

OR2B3 = target: T5, OR2B3 (Homo sapiens, UniProt O76000); settings: OR2B3, 500 μM n-hexanal, with the TAR-Tat system (hOR/pHEK), n = 1
T5 construct: Lucy tag (N); FLAG (N); Rho tag (N); expressed in transfected cells; host or cells: Flp-In T-REx-293 cells stably expressing RTP1S, Gαolf and Ric8-b
T5 sequence (O76000 1-313): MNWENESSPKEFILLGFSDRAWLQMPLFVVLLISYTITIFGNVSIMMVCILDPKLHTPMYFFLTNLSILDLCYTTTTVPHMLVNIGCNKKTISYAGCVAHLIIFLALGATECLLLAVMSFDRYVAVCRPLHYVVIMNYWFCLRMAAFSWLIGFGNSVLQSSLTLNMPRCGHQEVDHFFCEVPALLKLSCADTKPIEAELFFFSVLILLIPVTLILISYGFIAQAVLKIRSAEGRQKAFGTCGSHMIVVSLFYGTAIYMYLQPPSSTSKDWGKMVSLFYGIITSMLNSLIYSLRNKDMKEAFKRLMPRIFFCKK
Experimental: as §1

OR56B1 = target: T6, OR56B1 (Homo sapiens, UniProt Q8NGI3); settings: OR56B1, 500 μM n-hexanal, with the TAR-Tat system (hOR/pHEK), n = 1
T6 construct: Lucy tag (N); expressed in transfected cells; host or cells: Flp-In T-REx-293 cells stably expressing RTP1S, Gαolf and Ric8-b
T6 sequence (Q8NGI3 1-324): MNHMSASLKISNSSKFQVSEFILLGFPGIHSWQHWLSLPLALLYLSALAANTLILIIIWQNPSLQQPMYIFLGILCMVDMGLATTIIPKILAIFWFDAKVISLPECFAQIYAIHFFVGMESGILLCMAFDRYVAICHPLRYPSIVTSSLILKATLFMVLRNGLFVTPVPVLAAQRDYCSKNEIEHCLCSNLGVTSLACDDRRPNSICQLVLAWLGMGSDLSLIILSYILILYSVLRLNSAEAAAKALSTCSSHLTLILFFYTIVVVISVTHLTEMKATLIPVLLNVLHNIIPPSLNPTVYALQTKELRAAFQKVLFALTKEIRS
Experimental: as §1

Question: For `CCCCCC=O` [n-hexanal], which “response value (ΔL)” value (OR52N4) is on record?
Answer: > 500

Question: What about the “response value (ΔL)” value (OR2M3) of the same compound?
Answer: −620

Question: What about the “response value (ΔL)” value (OR4K5) of the same compound?
Answer: > 500

Question: What about the “response value (ΔL)” value (OR10A2) of the same compound?
Answer: > 500

Question: What about the “response value (ΔL)” value (OR2B3) of the same compound?
Answer: > 500

Question: What about the “response value (ΔL)” value (OR56B1) of the same compound?
Answer: > 500
